Entries after “also recorded” stand apart in the source; their conditions may differ.
How the values were obtained:
[1] = molecular target: T1, ERRγ (Homo sapiens, UniProt P62508); settings: cited from earlier work
T1 sequence (P62508 1-458): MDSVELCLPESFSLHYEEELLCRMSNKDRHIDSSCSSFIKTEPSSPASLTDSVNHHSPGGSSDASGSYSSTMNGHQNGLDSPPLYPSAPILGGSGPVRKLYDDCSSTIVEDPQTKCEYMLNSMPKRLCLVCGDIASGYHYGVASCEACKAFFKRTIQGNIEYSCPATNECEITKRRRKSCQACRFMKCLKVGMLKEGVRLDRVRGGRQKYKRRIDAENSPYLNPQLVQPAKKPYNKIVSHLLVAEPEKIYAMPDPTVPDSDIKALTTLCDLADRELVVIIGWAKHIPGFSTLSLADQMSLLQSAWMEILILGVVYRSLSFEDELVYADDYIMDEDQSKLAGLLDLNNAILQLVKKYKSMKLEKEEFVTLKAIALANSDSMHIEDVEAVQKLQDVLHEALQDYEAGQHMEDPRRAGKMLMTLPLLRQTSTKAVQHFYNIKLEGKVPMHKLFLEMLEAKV

[2] = molecular target: T2, ERRβ (Homo sapiens, UniProt O95718); settings: cited from earlier work
T2 sequence (O95718 1-433): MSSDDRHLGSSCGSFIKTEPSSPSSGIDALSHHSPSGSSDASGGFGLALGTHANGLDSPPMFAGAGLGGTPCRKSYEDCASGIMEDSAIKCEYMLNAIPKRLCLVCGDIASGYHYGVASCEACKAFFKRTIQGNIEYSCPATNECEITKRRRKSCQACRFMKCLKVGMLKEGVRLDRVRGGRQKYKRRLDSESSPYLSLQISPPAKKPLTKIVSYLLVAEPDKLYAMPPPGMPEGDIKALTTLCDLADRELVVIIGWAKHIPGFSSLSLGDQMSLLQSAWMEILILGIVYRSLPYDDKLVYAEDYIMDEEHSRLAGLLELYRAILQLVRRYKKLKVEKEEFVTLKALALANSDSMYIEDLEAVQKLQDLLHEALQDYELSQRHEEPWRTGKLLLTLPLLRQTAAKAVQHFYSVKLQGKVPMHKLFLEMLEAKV

[3] = dose 500 mg/kg/day; cited from earlier work
[4] = tested on: type II muscle; experiment: AICAR treatment of mice, SDH staining of muscle cryo-sections; format: in vivo; settings: AICAR 500 mg/kg/day for 4 weeks, intra-peritoneally, male C57Bl/6J mice
Procedure: Drug treatment. Male C57Bl/6J mice (8 weeks old) were intra-peritoneally injected with vehicle or AICAR (500 mg/kg/day), as previously described (Narkar et al., 2008).
Succinate Dehydrogenase (SDH) Staining. SDH staining was performed on […] cryo-sections of gastrocnemius. Briefly, WT and transgenic sections were incubated at 37° C. for 10 min in substrate buffer [0.2M Phosphate buffer containing sodium succinate (250 mg/10 ml) and NBT (10 mg/10 ml)]. Following incubation, sections were washed three times with water following by two washes each with increasing and decreasing concentrations of acetone (30%, 60%, 90%). Finally, the sections were washed three times with water and mounted in an aqueous mounting media.

[5] = tested on: AMPK; settings: dose 500 mg/kg/day; cited from earlier work

For `CCN(CC)c1ccc(C=NNC(=O)c2ccc(O)cc2)cc1` (stereo in doubt) [GSK9089, N-[(E)-[4-(diethylamino)phenyl]methylideneamino]-4-hydroxybenzamide], the “agonist of ERRγ” value [1] is given as “agonists” and the “agonist of ERRβ” value [2] is given as “agonists”.
In the case of `NC(=O)c1ncn([C@@H]2O[C@H](CO)[C@@H](O)[C@H]2O)c1N` [AICAR], the aerobic performance [3] is given as “improve aerobic performance”, the “aerobic transformation of skeletal muscle (SDH staining)” value [4] is given as “able to direct aspects of skeletal muscle transformation in a fashion similar to ERRγ; also recorded: triggers aerobic transformation of type II muscle” and the “stimulation of AMPK in anaerobic muscle” value [5] is given as “stimulate AMPK in anaerobic muscle”.
In the case of `Nc1ccc(C(=O)N/N=C/c2ccc(/N=N/c3ccccc3)cc2)cn1` [E6], the “selectivity for ERRγ over ERRα and β” value ([1]; screening assay of Kim et al. 2009) is listed as “selective for ERRγ but not ERRα and β”.
For `CC(C)c1ccc(/C=N/NC(=O)c2ccc(O)cc2)cc1` [GSK4716], the “agonist of ERRβ” value [2] is listed as “agonists”.
